≈ marks a conversion by molar mass, not a printed value. Calls of active or inactive are those of the source. No cut-off for these calls is given here.
Key:
HT-29 = test: Cytotoxicity against human HT-29 cells by tetrazolium-based colorimetric assay; type: functional
P388 = test: Cytotoxicity against mouse P388 cells by tetrazolium-based colorimetric assay; type: functional; conditions: for EC50: read-out: ED50 (the source's name)
A549 = test: Cytotoxicity against human A549 cells by tetrazolium-based colorimetric assay; type: functional, cell-based

SMILES	Activity (HT-29)	Activity (P388)	Activity (A549)	EC50 (P388) [µg/mL]	EC50 (HT-29; read-out: ED50 (the source's name)) [µg/mL]
CC(=O)O[C@H]1C/C(C)=C\[C@@H]2OC(=O)[C@](C)(O)[C@]2(O)[C@H](OC(C)=O)[C@H]2[C@@H](C)[C@@H](O)C[C@H](OC(C)=O)[C@]2(C)[C@H]1OC(C)=O	inactive	inactive	inactive	–	–
CC(=O)O[C@@H]1[C@H](C)[C@@H]2[C@@H](OC(C)=O)[C@@]3(O)[C@H](/C=C(CO)\C=C/[C@H](O)[C@@]2(C)[C@H]2O[C@@H]12)OC(=O)[C@@H]3C	inactive	inactive	inactive	–	–
CCCC(=O)O[C@H]1C/C(C)=C\[C@@H]2OC(=O)[C@](C)(O)[C@]2(O)[C@H](OC(C)=O)[C@H]2[C@@H](C)[C@@H](O)C[C@H](OC(C)=O)[C@]2(C)[C@H]1OC(C)=O [BRIAEXCAVATOLIDE L]	–	–	–	0.5 (≈ 0.816 µM)	–
CC(=O)O[C@@H]1[C@H](C)[C@@H]2[C@@H](OC(C)=O)[C@@]3(O)[C@H](/C=C(CCl)\C=C/[C@H](O)[C@@]2(C)[C@H]2O[C@@H]12)OC(=O)[C@@H]3C	inactive	inactive	inactive	–	–
CC(=O)O[C@H]1CC/C(CO)=C\[C@@H]2OC(=O)[C@@]3(C)O[C@]23[C@H](O)[C@H]2[C@@H](C)[C@H](OC(C)=O)C=C[C@@]21C (relative stereo)	–	–	–	0.4 (≈ 0.861 µM)	1.1 (≈ 2.37 µM)
